Laboratory results reported in US10800772B2 (Gilead Sciences, Inc., priority 2016, dated 2020).
Like-named read-outs stand apart in the source and are kept apart here.

Tests used:
HIV-IIIb IN T174I BT = assay: Antiviral assay in MT4 cells, HIV-IIIb IN T174I BT virus (from viral breakthrough); format: cell-based, HIV-1
Summary of the method: (§1)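 Each EC50 is the compound concentration that reduced CellTiter-Glo luminescence by 50% after 5 days of culture of HIV-IIIb-infected MT4 cells. Infection was at 0.004 m.o.i. with 3 h pre-incubation. Testing used 10 concentrations in quadruplicate.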

HIV-IIIb IN T174I DE = assay: Antiviral assay in MT4 cells, HIV-IIIb IN T174I DE virus (from dose escalation passaging); format: cell-based, HIV-1
Summary of the method: as §1

HIV-IIIb (wildtype) = assay: Antiviral assay in MT4 cells, HIV-IIIb wildtype; format: cell-based, HIV-1; conditions: read-out: WT EC50
Summary of the method: as §1

[1] = Hum MS stability (human microsomal stability half-life); conditions: human microsomes
[2] = Human immunodeficiency virus 1, IIIB, MT4, 120 h, read-out: T174I BT EC50, MT4 cells, HIV-IIIb IN T174I BT (viral breakthrough), 5 days, CellTiter-Glo
[3] = Human immunodeficiency virus 1, IIIB, MT4, 120 h, read-out: T174I DE EC50, MT4 cells, HIV-IIIb IN T174I DE (dose escalation), 5 days, CellTiter-Glo
[4] = Human immunodeficiency virus 1, IIIB, MT4, 120 h
[5] = MT4 cells, HIV-IIIb IN T174I BT (viral breakthrough), 5 days, CellTiter-Glo, read-out: T174I BT EC50
[6] = MT4 cells, HIV-IIIb IN T174I DE (dose escalation), 5 days, CellTiter-Glo, read-out: T174I DE EC50
[7] = MT4 cells, HIV-IIIb wildtype, 5 days, CellTiter-Glo

| Molecule | EC50 (HIV-IIIb IN T174I BT; [2]) [µM] | EC50 (HIV-IIIb IN T174I DE; [3]) [µM] | EC50 (HIV-IIIb (wildtype); [4]) [µM] | half-life [1] [h] | EC50 (HIV-IIIb IN T174I BT; [5]) [µM] | EC50 (HIV-IIIb IN T174I DE; [6]) [µM] | EC50 (HIV-IIIb (wildtype); [7]) [µM] |
| --- | --- | --- | --- | --- | --- | --- | --- |
| COCCN1CCC(c2nn(C)c3ccc(-c4nc5cc(C)c([C@H](OC(C)(C)C)C(=O)O)c(-c6ccc(Cl)cc6)c5s4)cc23)C1 (single isomer, unassigned) [Compound 69] | 0.972 | 1.15 | 0.005 | 5.72 | – | – | – |
| Cc1cc2nc(-c3ccc4c(c3)c(C3CCN(C5CCOC5)CC3)nn4C)sc2c(-c2ccc(Cl)cc2)c1[C@H](OC(C)(C)C)C(=O)O (stereo in doubt) [Compound 26, (S)-2-(tert-butoxy)-2-(7-(4-chlorophenyl)-5-methyl-2-(1-methyl-3-(1-((S)-tetrahydrofuran-3-yl)piperidin-4-yl)-1H-indazol-5-yl)benzo[d]thiazol-6-yl)acetic Acid] | 0.129 | 0.27 | 0.004 | 4.68 | – | – | – |
| Cc1cc2nc(-c3ccc4c(c3)c(C3CCN(C5CCOC5)CC3)nn4C)sc2c(-c2ccc(Cl)cc2)c1[C@H](OC(C)(C)C)C(=O)O (stereo in doubt) [Compound 27, (S)-2-(tert-butoxy)-2-(7-(4-chlorophenyl)-5-methyl-2-(1-methyl-3-(1-((R)-tetrahydrofuran-3-yl)piperidin-4-yl)-1H-indazol-5-yl)benzo[d]thiazol-6-yl)acetic Acid] | 0.154 | 0.245 | 0.004 | 4.17 | – | – | – |
| COC(=O)N1CC(N2CCC(c3cn(C)c4ncc(-c5nc6cc(C)c([C@H](OC(C)(C)C)C(=O)O)c(-c7ccc(Cl)cc7)c6s5)nc34)CC2)C1 [Compound 199, (S)-2-(tert-butoxy)-2-(7-(4-chloro-phenyl)-2-(7-(1-(1-(methoxycarbonyl)azetidin-3-yl)piperidin-4-yl)-5-methyl-5H-pyrrolo[2,3-b]pyrazin-2-yl)-5-methylbenzo[d]thiazol-6-yl) acetic acid] | 0.149 | 0.77 | 0.004 | – | – | – | – |
| CC(=O)N1CC(N2CCC(c3cn(C)c4ncc(-c5nc6cc(C)c([C@H](OC(C)(C)C)C(=O)O)c(-c7ccc(Cl)cc7)c6s5)nc34)CC2)C1 [Compound 200, (S)-2-(2-(7-(1-(1-acetylazetidin-3-yl)piperidin-4-yl)-5-methyl-5H-pyrrolo[2,3-b]pyrazin-2-yl)-7-(4-chlorophenyl)-5-methylbenzo [d]thiazol-6-yl)-2-(tert-butoxy) acetic acid] | 0.09 | 0.241 | 0.001 | – | – | – | – |
| COC(=O)N1CC[C@@H](N2CCC(c3cn(C)c4ncc(-c5nc6cc(C)c([C@H](OC(C)(C)C)C(=O)O)c(-c7ccc(Cl)cc7)c6s5)cc34)CC2)C1 [Compound 201, (S)-2-(tert-butoxy)-2-(7-(4-chloro-phenyl)-2-(3-(1-((R)-1-(methoxy-carbonyl)pyrrolidin-3-yl)piperidin-4-yl)-1-methyl-1H-pyrrolo[2,3-b]pyridin-5-yl)-5-methylbenzo[d]thiazol-6-yl) acetic acid] | 0.092 | 0.53 | 0.007 | – | – | – | – |
| COC(=O)N1CC(N2CCC(c3cn(C)c4ncc(-c5nc6cc(C)c([C@H](OC(C)(C)C)C(=O)O)c(-c7ccc(Cl)cc7)c6s5)cc34)CC2)C1 [Compound 203, (S)-2-(tert-butoxy)-2-(7-(4-chloro-phenyl)-2-(3-(1-(1-(methoxycarbonyl)azetidin-3-yl)piperidin-4-yl)-1-methyl-1H-pyrrolo[2,3-b]pyridin-5-yl)-5-methylbenzo[d]thiazol-6-yl) acetic acid] | 0.215 | 0.702 | 0.011 | – | – | – | – |
| CC(=O)N1CC(N2CCC(c3cn(C)c4ncc(-c5nc6cc(C)c([C@H](OC(C)(C)C)C(=O)O)c(-c7ccc(Cl)cc7)c6s5)cc34)CC2)C1 [Compound 204, (S)-2-(2-(3-(1-(1-acetylazetidin-3-yl)piperidin-4-yl)-1-methyl-1H-pyrrolo[2,3-b]pyridin-5-yl)-7-(4-chlorophenyl)-5-methylbenzo [d]thiazol-6-yl)-2-(tert-butoxy) acetic acid] | 0.255 | 0.636 | 0.015 | – | – | – | – |
| Cc1cc2nc(-c3ccc4c(c3)c(N3CCN5C(=O)COC[C@H]5C3)nn4C)sc2c(-c2ccc(Cl)cc2)c1[C@H](OC(C)(C)C)C(=O)O [Compound 205, (S)-2-(tert-butoxy)-2-(7-(4-chloro-phenyl)-5-methyl-2-(1-methyl-3-((R)-4-oxohexa-hydropyrazino [2,1-c][1,4]oxazin-8(1H)-yl)-1H-indazol-5-yl)benzo[d]thiazol-6-yl)acetic acid] | 0.457 | 0.736 | 0.007 | – | – | – | – |
| Cc1cc2nc(-c3ccc4c(c3)c(N3CCN([C@H]5C[C@@H](O)C5)CC3)nn4C)sc2c(-c2ccc(Cl)cc2)c1[C@H](OC(C)(C)C)C(=O)O [Compound 206, (S)-2-(tert-butoxy)-2-(7-(4-chloro-phenyl)-2-(3-(4-((1s,3s)-3-hydroxy-cyclobutyl)piperazin-1-yl)-1-methyl-1H-indazol-5-yl)-5-methylbenzo[d]thiazol-6-yl) acetic acid] | 0.34 | 0.539 | 0.021 | – | – | – | – |
| Cc1cc2nc(-c3ccc4c(c3)c(N3CCN(C5(C)COC5)CC3)nn4C)sc2c(-c2ccc(Cl)cc2)c1[C@H](OC(C)(C)C)C(=O)O [Compound 207, (S)-2-(tert-butoxy)-2-(7-(4-chloro-phenyl)-5-methyl-2-(1-methyl-3-(4-(3-methyloxetan-3-yl)piperazin-1-yl)-1H-indazol-5-yl)benzo[d]thiazol-6-yl)acetic acid] | 0.38 | 0.693 | 0.004 | – | – | – | – |
| COC(=O)N1CC[C@@H](N2CCC(c3nn(C)c4ccc(-c5nc6cc(C)c([C@H](OC(C)(C)C)C(=O)O)c(-c7ccc(Cl)cc7)c6s5)nc34)CC2)C1 [Compound 208, (S)-2-(tert-butoxy)-2-(7-(4-chloro-phenyl)-2-(3-(1-((R)-1-(methoxy-carbonyl)pyrrolidin-3-yl)piperidin-4-yl)-1-methyl-1H-pyrazolo[4,3-b]pyridin-5-yl)-5-methylbenzo[d]thiazol-6-yl) acetic acid] | 0.054 | 0.206 | 0.002 | – | – | – | – |
| (S)-2-(2-(3-(1- ((R)-1-acetyl- pyrrolidin-3-yl) piperidin-4-yl)- 1-methyl-1H- pyrazolo[4,3-b] pyridin-5-yl)-7- (4-chlorophenyl)- 5-methylbenzo[d] thiazol-6-yl)-2- (tert-butoxy) acetic acid [Compound 169] | – | – | – | – | 0.036 | 0.086 | 0.002 |
| (S)-2-(tert-butoxy)- 2-(7-(4-chloro- phenyl)-2-(3-(1- ((S)-1-(methoxy- carbonyl) pyrrolidin- 3-yl)piperidin-4- yl)-1-methyl-1H- pyrrolo[2,3-b] pyridin-5-yl)-5- methylbenzo[d] thiazol-6-yl) acetic acid [Compound 202] | – | – | – | – | 0.157 | 0.68 | 0.007 |
| (S)-2-(tert-butoxy)- 2-(7-(4-chloro- phenyl)-2-(3-(1-(2- (dimethylamino) ethyl)piperidin-4- yl)-1-methyl-1H- indazol-5-yl)-5- methylbenzo[d] thiazol-6-yl) acetic acid [Compound 130] | – | – | – | – | 0.122 | 0.232 | 0.012 |
| (S)-2-(tert-butoxy)- 2-(7-(4-chloro- phenyl)-2-(3-((R)- hexahydropyrazino [2,1-c][1,4]oxazin- 8(1H)-yl)-1-methyl- 1H-indazol-5-yl)- 5-methylbenzo[d] thiazol-6-yl)acetic acid [Compound 135] | – | – | – | – | 0.399 | 1.06 | 0.01 |
